Data published in patent US20240116875A1, “RATIONAL DESIGN, OPTIMIZATION, AND BIOLOGICAL EVALUATION OF NOVEL MEK4 INHIBITORS AGAINST PANCREATIC ADENOCARCINOMA” (NORTHWESTERN UNIVERSITY, priority 2022, published 2024).
“Also recorded” adds a separate entry of the source.

Legend:
HEK293T cells = assay: cell proliferation (cell count after 72 hours), HEK293T; format: cell-based, human; conditions: varying doses
Method: After 72 hours, cells were trypsinized, counted, and the cell numbers were normalized against the DMSO treatment. Mean±SD. Graphs are representative of 3 biological replicates. One-way ANOVA; ns, non-significant **, p<0.01 ***, p<0.001.
(§1) We also examined the effects of these inhibitors on JNK phosphorylation and proliferation of two pancreatic cancer cell lines (CD18 and MiaPaCa2).
(§2) Human pancreatic cancer cell lines (CD18/HPAF-II and MiaPaCa2) and HEK293T cells were obtained from American Type Culture Collection. All cell lines were cultured according to the manufacturer's protocol. All media contained 10% Fetal Bovine Serum (FBS) and antibiotics (100 U/mL Penicillin and 100 μg/mL Streptomycin).

CD18 cells = assay: cell proliferation (cell count after 72 hours), CD18; format: cell-based, human; conditions: CD18, 72 hours, varying doses, single agent
Method: (§3) After 72 hours, cells were trypsinized, counted, and the cell numbers were normalized against the DMSO treatment. Mean±SD. Graphs are representative of 3 biological replicates.
as §3
Cell numbers from different treatments were normalized against the DMSO treatment, and CDI is calculated as follows: CDI=AB/(A×B), with AB being the ratio of the combination groups to control group and A or B being the ratio of the single agent group to the DMSO group. Mean±SEM from 3 biological replicates.
as §1, §2

[1] = system: JNK phosphorylation in CD18 cells; assay: anisomycin-induced JNK phosphorylation, western blotting, CD18; format: cell-based, human; conditions: CD18, anisomycin 45 minutes then compound 5 hours
Method: (§4) HSP90 was used as loading control. The blots are representative of at least three biological replicates.
as §1, §2
(§5) Whole cell extracts of cultured cells were prepared in radioimmunoprecipitation (RIPA) lysis buffer supplemented with phosphatase and protease inhibitors (Calbiochem). Protein concentration was determined by the bicinchoninic acid assay (BCA) (ThermoFisher) and separated by the SDS-PAGE technique. […] Secondary anti-mouse IgG (A4416) and anti-rabbit IgG (A6667) antibodies were purchased from Sigma-Aldrich and used a 1:4000 dilution. Images of blots were acquired on HyBlot ES Autoradiography Film (Thomas Scientific, Swedesboro, NJ, USA) following incubation with SuperSignal West Pico PLUS (ThermoFisher).

BRAF = target: T1, BRAF (Homo sapiens, UniProt P15056); assay: scanEDGE DiscoverX kinome-wide scan, BRAF; format: binding; conditions: 10 μM
T1 construct: purchased Eurofins DiscoverX scanEDGE
T1 sequence (P15056 whole entry): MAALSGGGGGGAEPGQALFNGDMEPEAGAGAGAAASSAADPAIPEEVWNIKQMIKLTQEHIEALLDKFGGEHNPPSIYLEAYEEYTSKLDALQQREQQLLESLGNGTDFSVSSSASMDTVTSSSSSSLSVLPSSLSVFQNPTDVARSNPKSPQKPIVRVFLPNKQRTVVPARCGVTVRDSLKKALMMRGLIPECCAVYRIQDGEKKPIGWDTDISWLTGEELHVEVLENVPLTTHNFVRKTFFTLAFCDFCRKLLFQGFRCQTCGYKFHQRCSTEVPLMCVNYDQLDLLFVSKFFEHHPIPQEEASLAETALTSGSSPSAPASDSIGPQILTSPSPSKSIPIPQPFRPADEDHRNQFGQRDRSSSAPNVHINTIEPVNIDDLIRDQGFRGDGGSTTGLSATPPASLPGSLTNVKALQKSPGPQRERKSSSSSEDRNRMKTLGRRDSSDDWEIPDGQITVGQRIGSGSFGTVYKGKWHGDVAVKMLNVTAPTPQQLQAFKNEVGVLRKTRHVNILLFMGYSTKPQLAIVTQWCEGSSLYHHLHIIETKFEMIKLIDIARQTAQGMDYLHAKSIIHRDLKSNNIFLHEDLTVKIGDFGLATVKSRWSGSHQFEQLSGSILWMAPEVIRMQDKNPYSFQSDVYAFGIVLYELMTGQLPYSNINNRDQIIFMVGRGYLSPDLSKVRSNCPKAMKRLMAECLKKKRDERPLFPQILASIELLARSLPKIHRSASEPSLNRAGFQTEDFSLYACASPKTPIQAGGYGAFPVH
From the text: To compare our compounds to the rest of the MEK inhibitors discovered thus far, we turned to the DiscoverX platform (KINOMEscan®, Eurofins DiscoverX), a widely used assay for comparing selectivity across the kinome. The DiscoverX platform reports the thermodynamic Kd in order to facilitate direct comparison of inhibitor affinity across the kinome, independent of ATP concentration.

[2] = system: phospho-p38 MAPK in HEK293T cells; assay: p38 MAPK phosphorylation, western blotting, HEK293T; format: cell-based, human; conditions: anisomycin pretreatment, compound 100 μM, 5 hours
Method: as §4
(§6) We next evaluated the effects of our inhibitors on the phosphorylation activity and expression of MEK1/2, MEK3/6, and MEK7. […] We also evaluated the effects on p42/44 MAPK (ERK1/2), which functions downstream of MEK1/2.
as §5

Caco-2 = Caco-2 permeability assay; format: in vitro ADME
CYP isoforms 3A4/5 = assay: CYP inhibition, 3A4/5
[3] = system: phospho-p42/44 MAPK in HEK293T cells; assay: p42/44 MAPK (ERK1/2) phosphorylation, western blotting, HEK293T; format: cell-based, human; conditions: anisomycin pretreatment, compound 100 μM, 5 hours
Method: as §4, §6, §5

[4] = system: phospho-p42/44 MAPK in MiaPaCa2 cells; assay: p42/44 MAPK phosphorylation, western blotting, MiaPaCa2; format: cell-based, human; conditions: MiaPaCa2, MEK4 inhibitor 10 μM, 5 hours
Method: The effects of different treatments on phospho-p42/44 MAPK and total p42/44 MAPK expression levels were determined by western blotting. HSP90 was used as loading control. The blots are representative of at least three biological replicates.
as §5

CYP 1A2 = CYP 1A2 (Homo sapiens, UniProt P05177)
Sequence of CYP 1A2 (P05177 whole entry): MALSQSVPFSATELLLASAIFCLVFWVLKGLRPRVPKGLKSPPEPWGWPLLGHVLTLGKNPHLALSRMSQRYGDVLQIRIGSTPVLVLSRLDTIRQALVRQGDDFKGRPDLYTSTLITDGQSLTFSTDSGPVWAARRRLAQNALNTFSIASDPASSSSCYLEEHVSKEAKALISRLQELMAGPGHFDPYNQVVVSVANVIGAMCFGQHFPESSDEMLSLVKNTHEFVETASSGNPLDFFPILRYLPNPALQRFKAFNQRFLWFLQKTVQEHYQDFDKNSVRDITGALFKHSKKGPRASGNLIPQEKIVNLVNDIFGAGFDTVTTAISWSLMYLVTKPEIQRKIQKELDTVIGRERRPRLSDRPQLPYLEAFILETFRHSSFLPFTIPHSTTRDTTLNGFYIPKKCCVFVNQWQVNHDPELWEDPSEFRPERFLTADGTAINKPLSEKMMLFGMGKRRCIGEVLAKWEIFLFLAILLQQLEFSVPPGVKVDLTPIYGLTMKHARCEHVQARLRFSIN

SMILES: NC(=O)c1ccc(NS(=O)(=O)c2cccc(-c3n[nH]c4cc(F)ccc34)c2)cc1 [Compound 15o, 4-((3-(6-fluoro-1H-indazol-3-yl)phenyl)sulfonamido)benzamide]
- cell proliferation (HEK293T cells): decreased. HEK293T cell proliferation in a dose-dependent manner
- cell proliferation (CD18 cells): decreased proliferation; also recorded: antiproliferative properties
- effect on anisomycin-induced JNK phosphorylation [1]: attenuated anisomycin-induced JNK phosphorylation
- inhibition of BRAF (BRAF): did not inhibit
- effect on anisomycin-induced p38 MAPK phosphorylation [2]: not affected
- Caco-2 permeability (Caco-2): medium to high permeability
- Pgp substrate (Caco-2; Caco-2 permeability assay): likely to be a Pgp substrate
- inhibition of CYP isoforms 3A4/5 (CYP isoforms 3A4/5): did not inhibit
- effect on p42/44 MAPK phosphorylation after anisomycin [3]: reversed the effects of anisomycin
- effect on p42/44 MAPK phosphorylation [4]: did not induce p42/44 MAPK phosphorylation
- inhibition of CYP 1A2 (CYP 1A2): inhibited
